Square brackets hold non-standard residues; d marks the D form. Side chains are listed from the residue outwards. Peptide text beside a SMILES is read from it. PMO = not defined here; AEEA = NCCOCCOCC(=O)O; Ahx = NCCCCCC(=O)O; Mpa = O=C(O)CCS
Experiments:
[1] = Serum stability in 50% human serum at 37 °C (RP-HPLC, one-phase decay half-life); conditions: for half-life at 500 µM: human, serum (50% human serum)
Description: Serum stability analysis was conducted for each peptide (7×50 nmol) shown in Table 3 in 50% human serum (100 μL) at 37° C. At the end of each time point (0, 10, 30, 60, 120, 240, and 480 min), 1 M guanidine hydrochloride solution (200 μL) and ice-cold acetonitrile (600 μL) were added, and the serum-peptide solution was centrifuged at 14000 g for 10 min. The supernatant was lyophilised and redissolved in water (200 μL). All samples were analysed by RP-HPLC in the presence of phenol (50 nmol) as an internal standard, using water and acetonitrile containing 0.1% TFA, with a gradient of 10-80% acetonitrile over 30 min, and a flow rate of 1.5 mL/min. The percentage of peptide remaining was measured based on the area under curve. The percentage of peptide remaining versus time data was fitted to a non-linear one-phase exponential decay model in GraphPad Prism 9.2.0 to determine the half-life for each peptide.

[2] = tested on: SMN2; experiment: SMN2 splice-switching for exon 7 inclusion by RT-qPCR in SMA Type I patient-derived fibroblasts (Example 2); type: cell-based, human; conditions: for exon-7 inclusion activity, change in words: 0.5 μM and 1 μM, versus comparator; for level of exon-7 inclusion activity (full length SMN2/HPRT1, normalised to untreated control set to 1): treated 4 hrs, then 20 hrs growth medium, mean±SEM
Description: FIG. 3. (A) SMN2 pre-mRNA exon-7 skipping and production of 80-90% SMN2Δ7 mRNA transcripts. Peptide-PMO binding to Intron-splicing silencer (ISS-N1) and restoration of SMN2 splicing and production of full-length SMN2 mRNA transcripts. The positions of forward and reverse primers highlighted on full-length mRNA. (B)-(C) Effect of administration of peptides linked to PMO for SMN2 exon 7 inclusion, measured as change in the level of full length SMN2/HPRT1 in SMA patient-derived fibroblasts, each at two concentrations, 0.5 μM and 1 μM (or 1 μM and 5 μM in the case of PMO alone). UT, untreated. (B) For PMO constructs, from left to right: PMO; ApoE(141-150)-PMO; ApoE(133-150)-PMO. (C) For PMO constructs, from left to right: PMO; HA2-PMO; GALA-PMO; NLS-PMO; ApoE(141-150)-PMO; HA2-ApoE(141-150)-PMO; GALA-ApoE(141-150)-PMO; NLS-ApoE(141-150)-PMO; H4-ApoE(141-150)-PMO; A4-ApoE(141-150)-PMO. *P<0.05,**P<0.001, ***P<0.0001 cf. Untreated (control) and PMO (1 and 5 μM); #P<0.001 cf. GALA-/NLS-/H4-ApoE(141-150)-PMO (1 μM), ^<0.001 cf. ApoE(133-150)-PMO (0.5 and 1 μM), ^OP<0.001 cf. ApoE(141-150)-PMO (1 μM), ^&P<0.05 cf.
The inventors then evaluated cellular uptake and activity of these peptide-PMO conjugates in SMA Type I patient-derived fibroblasts with two copies of SMN2. Efficiency of uptake was assessed by RT-qPCR using SMN2 splice-switching for exon 7 inclusion (see FIG. 3A).
SMA Type I patient-derived fibroblasts (SMN2^+/+, GM03813, Coriell Cell Repositories) were maintained in Dulbecco's Modified Eagle's Medium (DMEM), supplemented with 10% foetal bovine serum (FBS), 1% Penicillin/Streptomycin and 1% L-glutamine (L-glu) at 37° C. Cells were plated in 6-well plates at a density of 3×10^5/well in 6 well plates one day prior to treatment with PMO and peptide-PMO conjugates. Cells used were from passage 8-22. PMO and the peptide-PMO conjugates were dissolved in nuclease-free water and diluted to appropriate concentrations in Opti-MEM reduced serum medium. Cells were treated for 4 hrs at 37° C. The transfection medium was then removed and replaced with growth medium in which the cells were incubated for 20 hrs.
Cells were washed with PBS and total cellular RNA was extracted using Trizol (TRI Reagent®, Sigma) according to the manufacturer's instructions (Life Technologies). 400 ng purified RNA was reverse transcribed into cDNA using BioRad iScript Reverse Transcription Supermix kit according to the manufacturer's instructions. The reverse transcription was performed using the Veriti Thermal Cycler (ThermoFisher Scientific) with the thermal cycling conditions: 25° C. for 5 min, 46° C. for 20 min, 95° C. for 1 min followed by a 4° C. holding period.
Quantitative PCR (20 ng cDNA/well) was carried out in a 96-well plate in triplicate using SsoAdvanced Universal SYBR Green Supermix on a Biorad CFX96 Touch™ Real-Time PCR detection system. The amplification was carried out using full-length SMN2-specific primers: Ex-6 Forward 5′-[…]-3′ (SEQ ID NO:10) and Ex7-8 reverse 5′[…]-3′ (SEQ ID NO:11). Human HPRT1 was used as the internal reference gene with forward primer sequence 5′-[…]-3′ (SEQ ID NO:12) and reverse primer sequence 5′-[…]-3′ (SEQ ID NO:13). The ΔΔCt method was used to correct the Ct values against the HPRT1 Ct values. The values obtained were normalised to the untreated control values which were set to 1. Statistical analysis was carried out using one-way ANOVA with post-hoc Bonferroni for multiple groups comparison (GraphPad Prism V.8, 2018). All data are expressed as mean±SEM from at least three independent experiments with p<0.05 considered significant.

half-life at 500 µM [1] [min]	Molecule	exon-7 inclusion activity, change in words [2]	further results
36	CC[C@H](C)[C@H](NC(=O)[C@H](C)NC(=O)[C@H](Cc1c[nH]cn1)NC(=O)[C@H](Cc1ccccc1)NC(=O)[C@H](CC(C)C)NC(=O)CNC(C)=O)C(=O)N[C@@H](C)C(=O)N[C@@H](Cc1c[nH]cn1)C(=O)N[C@@H](Cc1ccccc1)C(=O)N[C@H](C(=O)N[C@@H](Cc1c[nH]cn1)C(=O)NCC(=O)NCC(=O)N[C@@H](Cc1c[nH]c2ccccc12)C(=O)N[C@@H](Cc1c[nH]cn1)C(=O)NCCOCCOCC(=O)N[C@@H](CCCCNC(=O)COCCOCCNC(=O)CCS)C(=O)NCCOCCOCC(=O)N[C@@H](CC(C)C)C(=O)N[C@@H](CCCNC(=N)N)C(=O)N[C@@H](CCCCN)C(=O)N[C@@H](CC(C)C)C(=O)N[C@@H](CCCNC(=N)N)C(=O)N[C@@H](CCCCN)C(=O)N[C@@H](CCCNC(=N)N)C(=O)N[C@@H](CC(C)C)C(=O)N[C@@H](CC(C)C)C(=O)N[C@@H](CCCNC(=N)N)C(=O)O)[C@@H](C)CC [Br-HA2-(TPA)-ApoE(141-150), Ac-GLFHAIAHFIHGGWH-mPEG-K(mPEG-TPA)-mPEG-LRKLRKRLLR] (Ac-GLFHAIAHFIHGGWH[AEEA]K([AEEA-Mpa])[AEEA]LRKLRKRLLR-OH)	–	–
96	CC[C@@H](C)[C@@H](NC(=O)[C@@H](C)NC(=O)[C@@H](Cc1c[nH]cn1)NC(=O)[C@@H](Cc1ccccc1)NC(=O)[C@H](NC(=O)[C@@H](Cc1c[nH]cn1)NC(=O)CNC(=O)CNC(=O)[C@@H](Cc1c[nH]c2ccccc12)NC(=O)[C@@H](Cc1c[nH]cn1)NC(C)=O)[C@H](C)CC)C(=O)N[C@H](C)C(=O)N[C@H](Cc1c[nH]cn1)C(=O)N[C@H](Cc1ccccc1)C(=O)N[C@H](CC(C)C)C(=O)NCC(=O)NCCOCCOCC(=O)N[C@@H](CCCCNC(=O)COCCOCCNC(=O)CCS)C(=O)NCCOCCOCC(=O)N[C@H](CCCNC(=N)N)C(=O)N[C@H](CC(C)C)C(=O)N[C@H](CC(C)C)C(=O)N[C@H](CCCNC(=N)N)C(=O)N[C@H](CCCCN)C(=O)N[C@H](CCCNC(=N)N)C(=O)N[C@H](CC(C)C)C(=O)N[C@H](CCCCN)C(=O)N[C@H](CCCNC(=N)N)C(=O)N[C@H](CC(C)C)C(=O)N[C@H](Cc1c[nH]cn1)C(=O)N[C@H](CO)C(=O)N[C@H](C)C(=O)N[C@H](CC(C)C)C(=O)N[C@H](CCCNC(=N)N)C(=O)N[C@@H](C(=O)N[C@H](CCCNC(=N)N)C(=O)N[C@H](CC(C)C)C(=O)O)C(C)C [RI Br-HA2-(TPA)-ApoE(133-150), Ac-hwgghifhaiahflg-mPEG-K(mPEG-TPA)-mPEG-rllrkrlkrlhsalrvrl] (Ac-[dH][dW]GG[dH][dI][dF][dH][dA][dI][dA][dH][dF][dL]G[AEEA]K([AEEA-Mpa])[AEEA][dR][dL][dL][dR][dK][dR][dL][dK][dR][dL][dH][dS][dA][dL][dR][dV][dR][dL]-OH)	–	proteolytic stability compared to the parent L-peptides ([1]; 50% human serum, 37° C.): significantly higher proteolytic stability
18	CC[C@@H](C)[C@@H](NC(=O)[C@@H](C)NC(=O)[C@@H](Cc1c[nH]cn1)NC(=O)[C@@H](Cc1ccccc1)NC(=O)[C@H](NC(=O)[C@@H](Cc1c[nH]cn1)NC(=O)CNC(=O)CNC(=O)[C@@H](Cc1c[nH]c2ccccc12)NC(=O)[C@@H](Cc1c[nH]cn1)NC(C)=O)[C@H](C)CC)C(=O)N[C@H](C)C(=O)N[C@H](Cc1c[nH]cn1)C(=O)N[C@H](Cc1ccccc1)C(=O)N[C@H](CC(C)C)C(=O)NCC(=O)NCCOCCOCC(=O)N[C@@H](CCCCNC(=O)COCCOCCNC(=O)CCS)C(=O)NCCOCCOCC(=O)N[C@H](CCCNC(=N)N)C(=O)N[C@H](CC(C)C)C(=O)N[C@H](CC(C)C)C(=O)N[C@H](CCCNC(=N)N)C(=O)N[C@H](CCCCN)C(=O)N[C@H](CCCNC(=N)N)C(=O)N[C@H](CC(C)C)C(=O)N[C@H](CCCCN)C(=O)N[C@H](CCCNC(=N)N)C(=O)N[C@H](CC(C)C)C(=O)O [RI Br-HA2-(TPA)-ApoE(141-150), Ac-hwgghifhaiahflg-mPEG-K(mPEG-TPA)-mPEG-rllrkrlkrl] (Ac-[dH][dW]GG[dH][dI][dF][dH][dA][dI][dA][dH][dF][dL]G[AEEA]K([AEEA-Mpa])[AEEA][dR][dL][dL][dR][dK][dR][dL][dK][dR][dL]-OH)	–	–
–	Ac-AAAA-X-LRKLRKRLLR-X-C-PMO [A4-ApoE(141-150)-PMO]	significant decrease	–
–	Ac-HHHH-X-LRKLRKRLLR-X-C-PMO [H4-ApoE(141-150)-PMO]	–	level of exon-7 inclusion activity (full length SMN2/HPRT1, normalised to untreated control set to 1) ([2]; 0.5 μM): 1.81±0.02; level of exon-7 inclusion activity (full length SMN2/HPRT1, normalised to untreated control set to 1) ([2]; 1 μM): 2.0±0.05
–	Ac-VQRKRQKLMP-X-LRKLRKRLLR-X-C-PMO [NLS-ApoE(141-150)-PMO]	significant increase in the activity	–
–	Ac-WEAALAEALAEALAEHLAEALAEALEALAA-X-C-PMO (Ac-WEAALAEALAEALAEHLAEALAEALEALAA[Ahx]C-{PMO}; reading uncertain; also: printed as Ac-WEAALAEALAEALAEHLAEALAEALEALAA-X-C-PMO) [GALA-PMO]	no significant increase	–
–	Ac-WEAALAEALAEALAEHLAEALAEALEALAA-X-LRKLRKRLLR-X-C-PMO [GALA-ApoE(141-150)-PMO]	significant increase in the activity	level of exon-7 inclusion activity (full length SMN2/HPRT1, normalised to untreated control set to 1) ([2]; 0.5 μM): 1.41±0.04; level of exon-7 inclusion activity (full length SMN2/HPRT1, normalised to untreated control set to 1) ([2]; 1 μM): 2.14±0.14
–	Myr-LRKLRKRLLR-X-C-PMO [Myr-ApoE(141-150)-PMO]	–	exon-7 inclusion activity (full length SMN2/HPRT1, normalised to untreated control set to 1) ([2]; concentration not given, compared to acetylated counterpart): 1.91±0.03

Molecule	half-life at 500 µM [1] [min]	exon-7 inclusion activity, change in words [2]	further results
CC[C@H](C)[C@H](NC(=O)[C@H](C)NC(=O)[C@H](Cc1c[nH]cn1)NC(=O)[C@H](Cc1ccccc1)NC(=O)[C@H](CC(C)C)NC(=O)CNC(C)=O)C(=O)N[C@@H](C)C(=O)N[C@@H](Cc1c[nH]cn1)C(=O)N[C@@H](Cc1ccccc1)C(=O)N[C@H](C(=O)N[C@@H](Cc1c[nH]cn1)C(=O)NCC(=O)NCC(=O)N[C@@H](Cc1c[nH]c2ccccc12)C(=O)N[C@@H](Cc1c[nH]cn1)C(=O)NCCOCCOCC(=O)N[C@@H](CCCCNC(=O)COCCOCCNC(=O)CCS)C(=O)NCCOCCOCC(=O)N[C@@H](CC(C)C)C(=O)N[C@@H](CCCNC(=N)N)C(=O)N[C@H](C(=O)N[C@@H](CCCNC(=N)N)C(=O)N[C@@H](CC(C)C)C(=O)N[C@@H](C)C(=O)N[C@@H](CO)C(=O)N[C@@H](Cc1c[nH]cn1)C(=O)N[C@@H](CC(C)C)C(=O)N[C@@H](CCCNC(=N)N)C(=O)N[C@@H](CCCCN)C(=O)N[C@@H](CC(C)C)C(=O)N[C@@H](CCCNC(=N)N)C(=O)N[C@@H](CCCCN)C(=O)N[C@@H](CCCNC(=N)N)C(=O)N[C@@H](CC(C)C)C(=O)N[C@@H](CC(C)C)C(=O)N[C@@H](CCCNC(=N)N)C(=O)O)C(C)C)[C@@H](C)CC [Br-HA2-(TPA)-ApoE(133-150), Ac-GLFHAIAHFIHGGWH-mPEG-K(mPEG-TPA)-mPEG-LRVRLASHLRKLRKRLLR] (Ac-GLFHAIAHFIHGGWH[AEEA]K([AEEA-Mpa])[AEEA]LRVRLASHLRKLRKRLLR-OH)	60	–	–

— patent publication US20230399378A1, “PEPTIDE-BASED DELIVERY OF AGENTS” (THE FLOREY INSTITUTE OF NEUROSCIENCE AND MENTAL HEALTH, priority 2020, published 2023)
